{"source": "ChEMBL document CHEMBL3272271", "about": "“Folate antagonists. 13. 2,4-Diamino-6-](alpha,alpha,alpha-trifluoro-m-tolyl)thio]quinazoline and related 2,4-diamino-6-[(phenyl- and naphthyl)thio]quinazolines, a unique class of antimetabolites with extraordinary antimalarial and antibacterial effects” (J Med Chem, 1978)", "key": {"Gallus gallus [1]": {"test_system": "Gallus gallus", "test": "Toxicity in sporozoite-induced Plasmodium gallinaceum infected white leghorn chicken assessed as mortality at 240 mg/kg, sc administered 72 hrs after infection measured up to 6 days", "format": "organism-based", "parameters": "dose 240 mg/kg, route subcutaneous", "details": "in vivo"}, "Gallus gallus [2]": {"test_system": "Gallus gallus", "test": "Toxicity in sporozoite-induced Plasmodium gallinaceum infected white leghorn chicken assessed as mortality at 120 mg/kg, sc administered 72 hrs after infection measured up to 6 days", "format": "organism-based", "parameters": "dose 120 mg/kg, route subcutaneous", "details": "in vivo"}, "Plasmodium gallinaceum [3]": {"test_system": "Plasmodium gallinaceum", "test": "Antimalarial activity against trophozoite-induced Plasmodium gallinaceum infected in white leghorn chicken assessed as disease cure from parasite infection at 120 mg/kg, sc administered 72 hrs after infection", "format": "functional, organism-based", "parameters": "dose 120 mg/kg"}, "Plasmodium berghei [4]": {"test_system": "Plasmodium berghei", "test": "Antimalarial activity against Plasmodium berghei infected in mouse assessed as disease cure from parasite infection at 80 mg/kg, sc administered 72 hrs after infection", "format": "functional, organism-based", "parameters": "dose 80 mg/kg"}, "Plasmodium gallinaceum [5]": {"test_system": "Plasmodium gallinaceum", "test": "Antimalarial activity against trophozoite-induced Plasmodium gallinaceum infected in white leghorn chicken assessed as disease cure from parasite infection at 60 mg/kg, sc administered 72 hrs after infection", "format": "functional, organism-based", "parameters": "dose 60 mg/kg"}, "Gallus gallus [6]": {"test_system": "Gallus gallus", "test": "Toxicity in trophozoite-induced Plasmodium gallinaceum infected white leghorn chicken assessed as mortality at 120 mg/kg, sc administered 72 hrs after infection measured after 48 hrs", "format": "organism-based", "parameters": "dose 120 mg/kg, route subcutaneous", "details": "in vivo"}, "Plasmodium berghei [7]": {"test_system": "Plasmodium berghei", "test": "Antimalarial activity against Plasmodium berghei infected in mouse assessed as increase in mean survival days of host at 40 mg/kg, sc administered 72 hrs after infection relative to control", "format": "functional", "details": "route subcutaneous"}, "Plasmodium berghei [8]": {"test_system": "Plasmodium berghei", "test": "Antimalarial activity against Plasmodium berghei infected in mouse assessed as disease cure from parasite infection at 40 mg/kg, sc administered 72 hrs after infection", "format": "functional, organism-based", "parameters": "dose 40 mg/kg"}, "Plasmodium berghei [9]": {"test_system": "Plasmodium berghei", "test": "Antimalarial activity against Plasmodium berghei infected in mouse assessed as increase in mean survival days of host at 80 mg/kg, sc administered 72 hrs after infection relative to control", "format": "functional", "details": "route subcutaneous"}, "Plasmodium berghei [10]": {"test_system": "Plasmodium berghei", "test": "Antimalarial activity against DDS-resistant Plasmodium berghei assessed as drug resistance relative to control", "format": "functional"}, "Plasmodium gallinaceum [11]": {"test_system": "Plasmodium gallinaceum", "test": "Antimalarial activity against sporozoite-induced Plasmodium gallinaceum infected in white leghorn chicken assessed as increase in mean survival days of host at 15 mg/kg, sc administered 72 hrs after infection relative to control", "format": "functional", "details": "route subcutaneous"}, "Plasmodium gallinaceum [12]": {"test_system": "Plasmodium gallinaceum", "test": "Antimalarial activity against sporozoite-induced Plasmodium gallinaceum infected in white leghorn chicken assessed as increase in mean survival days of host at 60 mg/kg, sc administered 72 hrs after infection relative to control", "format": "functional", "details": "route subcutaneous"}, "Plasmodium berghei [13]": {"test_system": "Plasmodium berghei", "test": "Antimalarial activity against Plasmodium berghei infected in mouse assessed as increase in mean survival days of host at 10 mg/kg, sc administered 72 hrs after infection relative to control", "format": "functional", "details": "route subcutaneous"}, "Plasmodium gallinaceum [14]": {"test_system": "Plasmodium gallinaceum", "test": "Antimalarial activity against trophozoite-induced Plasmodium gallinaceum infected in white leghorn chicken assessed as disease cure from parasite infection at 30 mg/kg, sc administered 72 hrs after infection", "format": "functional, organism-based", "parameters": "dose 30 mg/kg"}, "Plasmodium gallinaceum [15]": {"test_system": "Plasmodium gallinaceum", "test": "Antimalarial activity against trophozoite-induced Plasmodium gallinaceum infected in white leghorn chicken assessed as increase in mean survival days of host at 30 mg/kg, sc administered 72 hrs after infection relative to control", "format": "functional", "details": "route subcutaneous"}, "Plasmodium berghei [16]": {"test_system": "Plasmodium berghei", "test": "Antimalarial activity against Plasmodium berghei infected in mouse assessed as disease cure from parasite infection at 160 mg/kg, sc administered 72 hrs after infection", "format": "functional, organism-based", "parameters": "dose 160 mg/kg"}, "Gallus gallus [17]": {"test_system": "Gallus gallus", "test": "Toxicity in sporozoite-induced Plasmodium gallinaceum infected white leghorn chicken assessed as mortality at 480 mg/kg, sc administered 72 hrs after infection measured up to 6 days", "format": "organism-based", "parameters": "dose 480 mg/kg, route subcutaneous", "details": "in vivo"}, "Plasmodium gallinaceum [18]": {"test_system": "Plasmodium gallinaceum", "test": "Antimalarial activity against trophozoite-induced Plasmodium gallinaceum infected in white leghorn chicken assessed as disease cure from parasite infection at 160 mg/kg, sc administered 72 hrs after infection", "format": "functional, organism-based", "parameters": "dose 160 mg/kg"}, "Plasmodium berghei [19]": {"test_system": "Plasmodium berghei", "test": "Antimalarial activity against trophozoite-induced Plasmodium berghei infected in mouse assessed as daily dose required to suppression of 90% parasite infection administered with diet for 6 days", "format": "functional"}, "Plasmodium gallinaceum [20]": {"test_system": "Plasmodium gallinaceum", "test": "Antimalarial activity against trophozoite-induced Plasmodium gallinaceum infected in white leghorn chicken assessed as increase in mean survival days of host at 60 mg/kg, sc administered 72 hrs after infection relative to control", "format": "functional", "details": "route subcutaneous"}, "Plasmodium berghei [21]": {"test_system": "Plasmodium berghei", "test": "Antimalarial activity against Plasmodium berghei infected in mouse assessed as disease cure from parasite infection at 320 mg/kg, sc administered 72 hrs after infection", "format": "functional, organism-based", "parameters": "dose 320 mg/kg"}, "Gallus gallus [22]": {"test_system": "Gallus gallus", "test": "Toxicity in sporozoite-induced Plasmodium gallinaceum infected white leghorn chicken assessed as mortality at 60 mg/kg, sc administered 72 hrs after infection measured up to 6 days", "format": "organism-based", "parameters": "dose 60 mg/kg, route subcutaneous", "details": "in vivo"}, "Mus musculus [23]": {"test_system": "Mus musculus", "test": "Toxicity in Plasmodium berghei infected mouse assessed as mortality at 640 mg/kg, sc administered 72 hrs after infection measured after 2 to 5 days", "format": "organism-based", "parameters": "dose 640 mg/kg, route subcutaneous", "details": "in vivo"}, "Plasmodium gallinaceum [24]": {"test_system": "Plasmodium gallinaceum", "test": "Antimalarial activity against sporozoite-induced Plasmodium gallinaceum infected in white leghorn chicken assessed as increase in mean survival days of host at 30 mg/kg, sc administered 72 hrs after infection relative to control", "format": "functional", "details": "route subcutaneous"}, "Plasmodium berghei [25]": {"test_system": "Plasmodium berghei", "test": "Ratio of quinine hydrochloride SD90 to compound SD90 for trophozoite-induced Plasmodium berghei infected in mouse assessed as daily dose required to suppression of 90% parasite infection administered with diet for 6 days", "format": "functional"}, "Mus musculus [26]": {"test_system": "Mus musculus", "test": "Toxicity in Plasmodium berghei infected mouse assessed as mortality at 320 mg/kg, sc administered 72 hrs after infection measured after 2 to 5 days", "format": "organism-based", "parameters": "dose 320 mg/kg, route subcutaneous", "details": "in vivo"}, "Plasmodium berghei [27]": {"test_system": "Plasmodium berghei", "test": "Antimalarial activity against Plasmodium berghei infected in mouse assessed as increase in mean survival days of host at 20 mg/kg, sc administered 72 hrs after infection relative to control", "format": "functional", "details": "route subcutaneous"}}, "note": "Activity calls are given as the source filed them. The rule behind the calls is not given here.", "data": [{"compound": "CC1(C)N=C(N)N=C(N)N1c1ccc(Cl)cc1.Cl", "note": "[CHLORCYCLOGUANIL HYDROCHLORIDE]", "values": [{"measurement": "Activity", "setting": "Gallus gallus [1]", "result": "Toxic"}, {"measurement": "Activity", "setting": "Gallus gallus [2]", "result": "Toxic"}, {"measurement": "Activity", "setting": "Plasmodium gallinaceum [3]", "result": "Active"}, {"measurement": "Activity", "setting": "Plasmodium berghei [4]", "result": "Active"}, {"measurement": "Activity", "setting": "Plasmodium gallinaceum [5]", "result": "Active"}, {"measurement": "Activity", "setting": "Gallus gallus [6]", "result": "Toxic"}, {"measurement": "MST", "setting": "Plasmodium berghei [7]", "result": 13.4, "unit": "days"}, {"measurement": "Activity", "setting": "Plasmodium berghei [8]", "result": "Active"}, {"measurement": "MST", "setting": "Plasmodium berghei [9]", "result": 21.6, "unit": "days"}, {"measurement": "fold change (FC)", "setting": "Plasmodium berghei [10]", "result": "<2"}, {"measurement": "MST", "setting": "Plasmodium gallinaceum [11]", "result": 0, "unit": "days"}, {"measurement": "MST", "setting": "Plasmodium gallinaceum [12]", "result": 0, "unit": "days"}, {"measurement": "MST", "setting": "Plasmodium berghei [13]", "result": 4.9, "unit": "days"}, {"measurement": "Activity", "setting": "Plasmodium gallinaceum [14]", "result": "Active"}, {"measurement": "MST", "setting": "Plasmodium gallinaceum [15]", "result": 11.7, "unit": "days"}, {"measurement": "Activity", "setting": "Plasmodium berghei [16]", "result": "Active"}, {"measurement": "Activity", "setting": "Gallus gallus [17]", "result": "Toxic"}, {"measurement": "Activity", "setting": "Plasmodium gallinaceum [18]", "result": "Active"}, {"measurement": "SD90", "setting": "Plasmodium berghei [19]", "result": 2.1, "unit": "mg/kg/day"}, {"measurement": "MST", "setting": "Plasmodium gallinaceum [20]", "result": 15.1, "unit": "days"}, {"measurement": "Activity", "setting": "Plasmodium berghei [21]", "result": "Active"}, {"measurement": "Activity", "setting": "Gallus gallus [22]", "result": "Toxic"}, {"measurement": "Activity", "setting": "Mus musculus [23]", "result": "Toxic"}, {"measurement": "MST", "setting": "Plasmodium gallinaceum [24]", "result": 2.3, "unit": "days"}, {"measurement": "Ratio", "setting": "Plasmodium berghei [25]", "result": 35}, {"measurement": "Activity", "setting": "Mus musculus [26]", "result": "Toxic"}, {"measurement": "MST", "setting": "Plasmodium berghei [27]", "result": 7.9, "unit": "days"}]}]}
